# In patent US7786258B2, “Methods for inhibiting immune complex formation in a subject” (Trinity Therapeutics, Inc., priority 2004, dated 2010):
# Where two headings read alike, the source gives them in different places. Positions of bridges follow the written chain, without caps; N, C: chain ends. Residues, ends and D or L forms follow the SMILES beside them. No end group written: not given here.
# What was measured:
# [1] = test system: DBA/1J mice with collagen-induced arthritis
# [2] = test system: whole human IgG4; experiment: Inhibition of Fc:Fc interactions: immune complexes on IgG4 coated microwells (Example 3); assay type: binding; details: for OD 405 nm: IgG4 coated microwells, positive control (buffer) 0.716
# Excerpt: Inhibition of Fc:Fc interactions: The Fc region of IgG4 interacts in an Fc to Fc fashion with immune complexed IgG. Purified IgG4 is used with polypeptides of the invention to examine inhibition of immune complex formation and Fc:Fc interactions. Chemical modification of His435, a critical IgG Fc amino acid bound by polypeptides of the invention, is known to inhibit Fc:Fc interactions.
# [3] = test system: C1q; experiment: Inhibition of C1q binding: reverse ELISA, PAP immune complexes on C1q coated plates (Example 3); parameters: species or system human; details: for OD 405 nm: peptide or C1q pre-incubated with PAP 30 minutes, (+) control PAP with no peptide 0.467, lower OD = more inhibition
# Excerpt: For this reason, a “reverse ELISA” technique is used to assess binding of the Fc region to ligands that bind to immune complexed IgG Fc. In a reverse ELISA, the enzyme (e.g., HRP) is not covalently conjugated to the Fc portion of the secondary antibody. Rather, a preformed immune complex of peroxidase-rabbit (or mouse) anti-peroxidase IgG (“PAP” complex) is used. […] In the absence of competitor, PAP complexes bind to the immobilized ligand and the reaction between HRP and its substrate produces a signal. This signal is reduced by polypeptides and compounds of the invention that inhibit PAP binding to the immobilized ligand.
# Inhibition of C1q binding: Twenty μl of peroxidase (P) (Sigma) was diluted in 2 ml of sample diluent (Quidel Corp, San Diego, Calif.). Twenty μl of anti-peroxidase (AP) (Sigma) was diluted in 2 ml of sample diluent, and 20 μl of the diluted AP was added to the diluted P (1:100 antigen:antibody ratio) to form peroxidase-anti-peroxidase (PAP) complexes. The extreme antigen excess guaranteed that any single antibody would be bound to two peroxidase molecules and larger immune complexes would not form, thus preventing the bridging of larger immune complexes to multimeric C1q (heximeric). One hundred μl of peptide or C1q was pre-incubated with freshly prepared PAP for 30 minutes, added to C1q coated plates (Quidel Corp.), and incubated for one hour. After washing, ABTS substrate (Quidel Corp.) was added to the plates and incubated for 30 minutes, and the plates were read at 405 nm. All peptides were cyclized by forming a disulfide bond between the two cysteine residues.
# [4] = test system: FcγIIa; experiment: Inhibition of FcR binding: reverse ELISA, PAP immune complexes on FcγIIa coated plates (Example 3); details: plates read at 450 nm, (+) control PAP with no peptide 3.600
# Protocol: (§1) Inhibition of FcR binding: Once the reverse ELISA protocol was established using the C1q assay, the assay was redesigned using FcγIIa, FcγIIb and FcγIII in place of C1q. Highly purified FcγIIa, FcγIIb and FcγIII were immunoadsorbed onto plastic microwells. After optimizing the FcγR reverse ELISA system, simple competitive inhibition experiments using polypeptides of the invention were conducted to investigate their ability to inhibit binding of immune complexes to purified FcγR.
# (§2) Falcon microtiter plates were coated with 1:10 dilutions of highly purified FcγIIa, FcγIIb and FcγIII and incubated for 24 hours. […] Equal amounts (50 μl) of peptide and 1:10 PAP immune complexes were pre-incubated for one hour and then incubated on the FcR coated plates for one hour. […] Stop solution (10 μl) was added and the plates were read at 450 nm.
# [5] = test system: FcγIIb; experiment: Inhibition of FcR binding: reverse ELISA, PAP immune complexes on FcγIIb coated plates (Example 3); details: plates read at 450 nm, (+) control PAP with no peptide 3.600
# Protocol: as §1, §2
# [6] = test system: FcγIII; experiment: Inhibition of FcR binding: reverse ELISA, PAP immune complexes on FcγIII coated plates (Example 3); details: plates read at 450 nm, (+) control PAP with no peptide 3.600
# Protocol: as §1, §2
# [7] = test system: human monomeric IgG; experiment: Inhibition of rheumatoid factor binding to monomeric IgG (Example 4); details: peptides pre-incubated 30 minutes with monomeric IgG, then 200 I.U. RF; (+) control buffer only 1.376
# Protocol: The ability of the peptides to inhibit the binding of rheumatoid factor to monomeric IgG was tested. Binding to monomeric IgG may be important, as it may increase the half-life of particular peptides and allow them to be more bioactive.
# A standard rheumatoid factor commercial test was used (Research Diagnostics) with the following modifications: 100 μl of test peptides were pre-incubated for 30 minutes with human monomeric IgG (Research Diagnostics). Plates were washed and incubated with 200 I.U. rheumatoid factor positive control supplied with the test kit. The rest of the test was performed according to the manufacturer's instructions.
# [8] = test system: polyclonal IgM RF; experiment: Inhibition of RF binding: PAP immune complexes on rheumatoid factor coated plates (Example 3); details: for OD 405 nm: PAP pre-incubated 30 minutes with peptides or RF, (+) control PAP with no peptide 0.753; for inhibition of RF binding to immune complexes, in words: Table 3
# Protocol: Inhibition of RF binding: The assay to test inhibition of RF binding to the IgG Fc CH2-CH3 clefts was very similar to the C1q-CIC EIA assay described above, with the exception that polyclonal IgM RF was coated onto the microwells instead of C1q. […] High titer, RF positive sera were purchased from Research Diagnostics (Flanders, N.J.).
# A 1:10 dilution of 200 μl of 200 I.U. rheumatoid factor (RF) (+) control (positive standard provided by Research Diagnostics was coated onto Falcon microtiter plates and incubated for 24 hours. The plates were blocked with 1:5 BSA blocking buffer (Alpha Diagnostic International) for one hour. Freshly prepared 1:10PAP (antigen:antibody) immune complexes were pre-incubated for 30 minutes with peptides or RF (positive control containing only buffer). After washing, plates were incubated with ABTS substrate (Research Diagnostics) for 30 minutes and then read at 405 nm. Results are shown in Table 3.
# [9] = test system: histone; experiment: Inhibition of histone binding: PAP immune complexes on histone-coated plates (Example 3); details: rabbit PAP pre-incubated with peptides or histone one hour; (+) control buffer only 1.268
# Protocol: Inhibition of histone binding: The binding of immune complexes to the kidneys in lupus nephritis appears to involve (a) the binding of histones to the GBM, and then (b) the binding of immune complexes (through the IgG Fc CH2-CH3 cleft) to the bound histones. Experiments similar to those described above were used to inhibit binding of purified histone to IgG Fc binding. Histone (Sigma) was diluted 1:10 in coating buffer (Alpha Diagnostic International) and incubated on Falcon microtiter plates for 24 hours. Plates were blocked with 5× BSA blocking solution (Alpha Diagnostic International) for 24 hours. Freshly prepared 1:10 rabbit PAP (Sigma) was pre-incubated with either peptides or histone for one hour, and 100 μl of the mixture was added to the histone-coated plates for one hour. Plates were incubated with ABTS substrate (Quidel Corp.) for 45 minutes, and OD 405 was read.
# [10] = test system: MBP; details: rabbit PAP pre-incubated with peptide or MBP 30 minutes; (+) control buffer only 1.033
# Protocol: Inhibition of MBP binding: MBP (Sigma) was diluted 1:10 with coating buffer (Alpha Diagnostic International) and incubated for 24 hours on Falcon microtiter plates. Plates were washed and then blocked with 5× BSA blocking buffer (Alpha Diagnostic International) for 24 hours. Rabbit 1:10 PAP immune complexes were pre-incubated with equal amounts of peptide or MBP for 30 minutes. One hundred μl of PAP immune complexes/peptide or PAP/MBP was then added to the MBP-coated plates and incubated for one hour. The plates were washed and incubated with TMB substrate (Alpha Diagnostic International) for 30 minutes. After adding stop solution (Alpha Diagnostic International), the plates were read at 450 nm.
# Further experiments were conducted to determine the effect of SEQ ID NO:47 (also referred to as NB-406) on binding of MBP to IgG PAP immune complexes.
# [11] = 10 mg/kg, versus diseased control
# Sequence of whole human IgG4 (P01861 99-327 isoform P01861-1 limits assumed): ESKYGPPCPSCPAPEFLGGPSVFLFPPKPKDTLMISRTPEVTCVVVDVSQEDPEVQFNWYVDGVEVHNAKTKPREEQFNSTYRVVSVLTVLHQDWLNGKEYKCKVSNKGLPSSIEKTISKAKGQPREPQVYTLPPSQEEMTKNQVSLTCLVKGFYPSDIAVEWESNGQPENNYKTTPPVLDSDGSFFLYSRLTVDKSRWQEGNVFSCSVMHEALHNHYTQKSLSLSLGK
Compound,OD 405 nm [2],OD 405 nm [3],PAP immune complex binding (OD at 450 nm) [4],OD at 450 nm (PAP binding to FcγIIb) [5],OD 450 nm (PAP immune complex binding) [6],OD 405 nm [7],OD 405 nm [8],OD 405 nm [9],OD 405 nm [10],also measured
CC(C)C[C@@H]1NC(=O)[C@H](Cc2c[nH]cn2)NC(=O)[C@H](Cc2c[nH]c3ccccc23)NC(=O)[C@H](C)NC(=O)[C@@H](NC(=O)[C@@H](N)CC(=O)O)CSSC[C@@H](C(=O)N[C@H](C(=O)O)[C@@H](C)O)NC(=O)[C@H](Cc2c[nH]c3ccccc23)NC(=O)[C@H](C(C)C)NC(=O)[C@H](CC(C)C)NC(=O)[C@H](CCC(=O)O)NC(=O)CNC1=O,,,,,,,,,,"adverse reactions at injection sites ([1]; daily subcutaneous injections day 32 to day 47, all doses, injection sites examined daily): no adverse reactions were observed; maximum inhibition of arthritic symptoms ([1]; mouse, in vivo): 37%"
"CC(C)C[C@@H]1NC(=O)[C@H](Cc2c[nH]cn2)NC(=O)[C@H](CCCNC(=N)N)NC(=O)[C@H](C)NC(=O)[C@@H](NC(=O)[C@@H]2CCCN2C(=O)[C@@H]2CCCN2C(=O)[C@H](C)N)CSSC[C@@H](C(=O)N[C@H](C(=O)O)[C@@H](C)O)NC(=O)[C@H](Cc2c[nH]c3ccccc23)NC(=O)[C@H](C(C)C)NC(=O)[C@H](CC(C)C)NC(=O)[C@H](CCC(=O)O)NC(=O)CNC1=O (HELM PEPTIDE1{A.P.P.C.A.R.H.L.G.E.L.V.W.C.T}$PEPTIDE1,PEPTIDE1,4:R3-14:R3$$$V2.0)",,,,,,,,,,"adverse reactions at injection sites ([1]; mouse, in vivo, sc): no adverse reactions were observed"
APPDCARHLGELVWCT (Synthetically generated polypeptide),0.107,,,,,,,,,
DCAAHLGELAACT (disulfide 2-12 (inferred)),,0.458,2.434,2.263,2.413,1.421,,,,"inhibition of immune complex binding to solid phase C1q, in words ([3]; Table 1): not significantly different from the positive control"
DCARHLGELVWCT (disulfide 2-12 (inferred)),0.096,0.193,2.539,1.952,2.529,1.231,0.109,0.363,0.473,"inhibition of RF binding to immune complexes, in words [8]: very effective inhibition; inhibition of Fc:Fc binding, in words ([2]; text on Table 8): strongest inhibition"
DCAWHLGELAACT (disulfide 2-12 (inferred)) [peptide substituted with alanine at positions 10 and 11],0.557,,1.484,1.067,1.345,1.397,0.622,0.729,0.706,
PCARHLGELVWCT (disulfide 2-12 (inferred)),0.129,0.205,1.149,1.211,1.602,1.323,0.106,0.444,0.489,"inhibition of RF binding to immune complexes, in words [8]: very effective inhibition"
RCARHLGELVWCT (disulfide 2-12 (inferred)),0.191,0.247,3.398,3.284,3.502,1.314,0.152,0.359,0.569,
"REMICADE: REMICADE® was obtained from Centocor (Malvern, Pa.)",,,,,,,,,,"effect on arthritic symptoms, in words ([1]; 10 mg/kg): no effect; effect on histological symptoms of arthritis, in words ([1]; 10 mg/kg): no effect; Arthritic Index ([1]; 10 mg/kg subcutaneously daily, average over final three days of treatment, diseased control 3.8): 3.8; Histological Evaluation ([1]; 10 mg/kg, hindlimbs, day 48, diseased control 45): 45; Arthritic Index Percent Change [1, 11]: 0%; Histological Evaluation Percent Change [1, 11]: 0%; adverse reactions at injection sites ([1]; mouse, in vivo, sc): no adverse reactions were observed"
